From patent US20050148570A1, “Novel substituted alkane compounds and uses thereof” (priority 2001, published 2005) come the findings set out here.

The test system of one data set is C. diphtheriae. The data set is described as follows: MIC, broth dilution method. The class given is cell-based. Conditions: for MIC: Corynebacterium diphtheriae, read-out: MIC Anti-Bacterial Activity. On the procedure:
(§1) Antibacterial activity can be determined by several standard methods well known by those skilled in the art, including disc diffusions methods, broth dilution minimal inhibitory concentration (MIC) methods, etc., including the detailed method outlined below. Cultures of bacteria are initially brought up from the freezer by streaking a loopful onto agar plates under the appropriate conditions. For instance stocks are streaked onto chocolate agar and then incubated for 18 hours at 35-37° C. in a 5% CO2 incubator. Five to 10 colonies are picked from the chocolate agar plate for subculture to Brain-Heart Infusion (BHI) broth or Mueller Hinton broth or BHI containing 4% serum and incubated under the appropriate conditions. The ability of the test compound to act as an antimicrobial is determined by the ability to inhibit bacterial, algae, or fungal growth in vitro. The optical density of the culture of organisms in the presence of an active compound is compared to the optical density of the same organism untreated. The activity of the compounds is described as either negative or the lowest concentration inhibiting growth.
A general note: Dilution methods test growth across graded concentrations, often in twofold steps.

Another data set deals with E. faecalis. The data set is described as follows: MIC, broth dilution method. It counts as cell-based. Conditions: for MIC: Enterococcus faecalis, read-out: MIC Anti-Bacterial Activity. The method, then:
as §1

For a further data set, the system named is H. influenzae. The data set is described as follows: MIC, broth dilution method. Conditions: for MIC: Haemophilus influenzae, read-out: MIC Anti-Bacterial Activity. The class given is cell-based. On the procedure: as §1
The test system of the next data set is H. pylori. The data set is described as follows: MIC, broth dilution method. It counts as cell-based. The method, then: as §1
In the next data set the test system is M. catarrhalis. The data set is described as follows: MIC, broth dilution method. The class given is cell-based. Conditions: for MIC: Moraxella catarrhalis, read-out: MIC Anti-Bacterial Activity. On the procedure: as §1
The test system of another data set is M. smegimatis. The data set is described as follows: MIC, broth dilution method. It counts as cell-based. Conditions: for MIC: read-out: MIC Anti-Bacterial Activity. On the procedure:
as §1

The next data set concerns S. aureus. The data set is described as follows: MIC, broth dilution method. It counts as cell-based. Conditions: for MIC: Staphylococcus aureus, read-out: Antibacterial Activity against S. aureus MIC. On the procedure:
as §1

The next data set relates to S. epidermidis. The data set is described as follows: MIC, broth dilution method. Conditions: for MIC: Staphylococcus epidermidis, read-out: MIC Anti-Bacterial Activity. It counts as cell-based. On the procedure:
as §1

The test system of a further data set is S. pneumoniae. The data set is described as follows: MIC, broth dilution method. Conditions: for MIC: Streptococcus pneumoniae, read-out: MIC Anti-Bacterial Activity. It counts as cell-based. On the procedure:
as §1

Another data set relates to S. pyogenes. The data set is described as follows: MIC, broth dilution method. It counts as cell-based. Conditions: for MIC: Streptococcus pyogenes, read-out: MIC Anti-Bacterial Activity. The method, then: as §1
In data set [1] the test system is methicillin-sensitive Staphylococcus aureus. The data set is described as follows: Wound healing model (FIG. 1). It counts as in vivo. Conditions: methicillin-susceptible Staphylococcus aureus; mice; composition applied topically twice daily; sampled 72 hours post-infection. The method, then: (§2) FIG. 1. Efficacy of a composition comprising the compound of Example 9 in the wound healing model. A defined inoculum of approximately 10^5 CFU of methicillin-sensitive Staphylococcus aureus in 20 μl culture medium was pipetted into a wound approximately 1 cm^2 created by removal of the epidermis from the shaved backs of mice. After 24 hours, the composition comprising Example 9, placebo control or positive control ointment was applied twice daily. Approximately, seventy two hours post-infection, the wound was sampled and appropriate dilutions plated on nutritive agars for determination of microbial burden. The number of colony forming units (CFU) of methicillin-sensitive Staphylococcus aureus per wound is shown.
(§3) The wound healing model, using methods generally known by those skilled in the art, is used to measure the efficacy of topically applied compounds in suitable vehicles against any bacteria, for example, Staphylococcus epidermis, Staphylococcus aureus, Streptococcus pyrogenes, Haemophilus influenzae, or mixtures thereof. By removing several epidermal layers by surgical procedure, a superficial wound of approximately 1 cm^2 was created. About 10^5cfu/20 ul of culture medium of any bacteria, for example, S aureus, was applied to the wound. […]

In data set [2] the test system is methicillin-resistant Staphylococcus aureus. The data set is described as follows: Wound healing model (FIG. 2). The class given is in vivo. Conditions: mice, composition applied topically twice daily, sampled 72 hours post-infection. On the procedure:
as §2, with “2.” for “1.”, “methicillin-resistant” for “methicillin-sensitive”
as §3

The test system of data set [3] is Staphylococcus epidermidis. The data set is described as follows: Wound healing model (FIG. 3). The class given is in vivo. Conditions: mice, composition applied topically twice daily, sampled 72 hours post-infection. The method, then:
as §2, with “3.” for “1.”, “epidermis” for “aureus”
as §3

≈ marks a conversion by molar mass, not a printed value.

One may read the melting point as the temperature, or range, at which the solid turns liquid.

`CCCCC1CC(c2ccc(O)c(Cl)c2)(c2ccc(O)c(Cl)c2)C1` [Example 8, 1,1-Bis(4-hydroxy-3-chloro-phenyl)-3-n-butyl-yclobutane]: the “MIC Anti-Bacterial Activity” value against C. diphtheriae was determined as 1 µg/mL (≈ 2.74 µM); with E. faecalis, 1 µg/mL (≈ 2.74 µM); in the data set on H. influenzae, 3 µg/mL (≈ 8.21 µM); against H. pylori, 31 µg/mL (≈ 84.9 µM); in the data set with M. catarrhalis it was 1 µg/mL (≈ 2.74 µM); against M. smegimatis, 1 µg/mL (≈ 2.74 µM). For the same molecule, the results for the “MIC Anti-Bacterial Activity” value in the data set with S. epidermidis, with S. pneumoniae and in the data set with S. pyogenes were 1 µg/mL (≈ 2.74 µM), 3 µg/mL (≈ 8.21 µM) and 13 µg/mL (≈ 35.6 µM), respectively. Besides, the “Antibacterial Activity against S. aureus MIC” value in the data set with S. aureus (S. aureus) is 0.5 µg/mL.

`CCCC1CC(c2ccc(O)c(Cl)c2)(c2ccc(O)c(Cl)c2)C1` [Example 5, 1,1-Bis(4-hydroxy-3-chloro-phenyl)-3-n-propyl-cyclobutane]: the melting point lay in the range of 103 to 105 °C. The MIC in the data set on C. diphtheriae is 1 µg/mL (≈ 2.85 µM). Besides, in the data set with E. faecalis, the MIC amounted to 2 µg/mL (≈ 5.69 µM). The MIC in the data set with H. influenzae stood at 3 µg/mL (≈ 8.54 µM). In the data set on M. catarrhalis, the MIC is 1 µg/mL (≈ 2.85 µM). Besides, the MIC in the data set on M. smegimatis was determined as 1 µg/mL (≈ 2.85 µM). In addition, in the data set on S. aureus, the MIC was found to be 1 µg/mL (≈ 2.85 µM). In the data set on S. epidermidis, the MIC stood at 1 µg/mL (≈ 2.85 µM). Besides, the MIC in the data set on S. pneumoniae is 3 µg/mL (≈ 8.54 µM). The MIC with S. pyogenes turned out to be 13 µg/mL (≈ 37 µM).

Consider `CCCCC1CC(c2ccc(O)c(C)c2)(c2ccc(O)c(C)c2)C1` [Example 2, 1,1-Bis(4-hydroxy-3-methylphenyl)-3-n-butyl-cyclobutane], for which the melting point was 135 to 137 °C. The MIC in the data set with C. diphtheriae turned out to be 1 µg/mL (≈ 3.08 µM). The MIC in the data set with E. faecalis amounted to 2 µg/mL (≈ 6.16 µM). In addition, in the data set on H. influenzae, the MIC came to 1 µg/mL (≈ 3.08 µM). Besides, the MIC with H. pylori (Helicobacter pylori, read-out: MIC Anti-Bacterial Activity) worked out at 16 µg/mL (≈ 49.3 µM). Besides, the MIC in the data set on M. catarrhalis was found to be 1 µg/mL (≈ 3.08 µM). For the same molecule, the MIC in the data set on M. smegimatis worked out at 2 µg/mL (≈ 6.16 µM). The MIC in the data set on S. aureus is 1 µg/mL (≈ 3.08 µM). Moreover, in the data set with S. epidermidis, the MIC was found to be 1 µg/mL (≈ 3.08 µM). Besides, the MIC in the data set on S. pneumoniae is 6 µg/mL (≈ 18.5 µM). Besides, the MIC in the data set on S. pyogenes is 6 µg/mL (≈ 18.5 µM).

With `CCCCCC(C)(c1ccc(O)c(C)c1)c1ccc(O)c(C)c1` [Example 9, 2,2-Bis(4-hydroxy-3-methylphenyl)heptane], the results for the MIC in the data set with M. smegimatis and in the data set with S. aureus were 2 µg/mL (≈ 6.4 µM) and 1 µg/mL (≈ 3.2 µM), respectively. Moreover, the “reducing the population levels of pathogenic bacteria in wound” value in data set [1], in data set [2] and in data set [3] was “efficacious” throughout.

Molecule `CCCC1CC(c2ccc(O)c(C)c2)(c2ccc(O)c(C)c2)C1` [Example 1, 1,1-Bis(4-hydroxy-3-methylphenyl)-3-n-propyl-cyclobutane] displayed a melting point of 130 to 132 °C. The MIC in the data set on C. diphtheriae stood at 2 µg/mL (≈ 6.44 µM). For the same molecule, the MIC in the data set on E. faecalis came to 3 µg/mL (≈ 9.66 µM). Moreover, the MIC with H. influenzae was found to be 1 µg/mL (≈ 3.22 µM). The MIC in the data set on M. catarrhalis was 2 µg/mL (≈ 6.44 µM). Further, the MIC in the data set with M. smegimatis was determined as 3 µg/mL (≈ 9.66 µM). The MIC with S. aureus was 1 µg/mL (≈ 3.22 µM). Also, the MIC in the data set with S. epidermidis was 2 µg/mL (≈ 6.44 µM). Besides, the MIC in the data set on S. pneumoniae came to 6 µg/mL (≈ 19.3 µM). Also, in the data set with S. pyogenes, the MIC is 6 µg/mL (≈ 19.3 µM).
